These results are taken from US8084018B2, “Methods for imaging dopamine transporter level” (Alseres Pharmaceuticals, Inc., priority 2007, dated 2011).

The series concerns the target T1, dopamine transporter (Homo sapiens, UniProt Q01959).
T1 construct: dynamic SPECT in Parkinson's subjects and similarly aged healthy control subjects; from tissue; host or cells: striatum (caudate and putamen) of living subjects, imaged in vivo
As to the kind of experiment: 123I Altropane dynamic SPECT imaging of striatal dopamine transporter in Parkinson's disease and healthy control subjects. Type of series: in vivo. To be noted: for Mean % test/retest difference: 15 PD subjects; for Total striatal binding ratio, Ratio (3-6): individual PD scans (paired test/retest), mean of scans 3-6, about 30 min from about 15 min post injection; for Peak Striatal:Occipital Ratio (peak SBR): single scan with highest uptake, 8 mCi i.v. From the text:
The following example summarizes single photon emission computed tomographic (SPECT) image acquisition, analysis methods and results for Parkinson's disease research participants and healthy controls participating in an ^123I Altropane SPECT imaging study. The experiment is an open label study evaluating time-activity curves and striatal dopamine transporter occupancy over the first hour post injection of ^123I Altropane using temporally well-resolved dynamic SPECT in Parkinson's subjects and similarly aged healthy control subjects. In addition, for the PD subjects, a second injection and scan is performed on each subject on a separate test days to evaluate the test/retest reproducibility data for both visual and quantitative analyses.
Fifteen idiopathic Parkinson's disease subjects are recruited through local advertising and word-of-mouth for enrollment in the study. Imaging is performed at Molecular NeuroImaging, LLC in New Haven, Conn., USA. ^123I Altropane is studied under the auspices of a physician-sponsored IND # 76,024, Dr. J. Seibyl physician sponsor using test article provided by MDS Nordion, Inc (Vancouver, BC, Canada). All subjects are provided informed consent prior to any study procedures. All fifteen subjects completed two separate injection and SPECT scan sessions with approximately 296 mBq (8 mCi) of ^123I Altropane. Subjects undergo motor ratings using the Unified Parkinson's Disease Rating Scale (UPDRS) following overnight period without anti-Parkinson medication administered by a movement disorder specialist. No PD subjects are terminated prior to achieving the study endpoint.
Twelve healthy control subjects are recruited for participation in a single scan session with ^123I Altropane using the identical SPECT image acquisition protocol as the PD subjects. Healthy subjects are evaluated by a movement disorder specialist to confirm the absence of neurologic illness.
SPECT scans are acquired for 60 minutes following the intravenous injection with 296 mBq (8.0 mCi) of ^123I Altropane. A series of dynamic SPECT scans are obtained as five scans at 6 minutes per acquisition followed by three scans at 10 minutes per acquisition. The subject remain in the camera for the duration of the acquisition. Each SPECT study is acquired on a Philips PRISM 3000XP triple-headed SPECT camera (Cleveland, Ohio, USA) fitted with fan-beam collimators. Each head rotates 360 degrees, sampling every 3 degrees for a total of 120 raw projection images per head. Projection data were collected in a 128×128 matrix within a symmetric energy window centered at 159 kEv (+/−10%).
Data are re-constructed using filtered back projection and a simple ramp filter followed by a post hoc (3-D) standardized low pass filter. Attenuation correction was performed applying a Chang 0 correction and a mu of 0.11 cm^−1 using a standard or custom automated software package. Regions of interest (ROIs) are placed in the 3-head data with individual ROI sampling of the left and right caudate and putamen and an occipital background region. The ROIs were then applied to all images in the injection session (total of 24=8 time points×3 head conditions (1, 1&2, 1&2&3). To check for head movement within each scan session, five external skin fiducial markers containing 1 μCi of ^123I were place along the canthomeatal line (2 right side, 3 left side) prior to each SPECT scan. Total counts within the ROI, total volume, and count density (counts/voxel) were extracted from each scan and logged in a data spreadsheet for determination of striatal uptake ratios (SBR) defined as the density of counts (counts per voxel per minute) in the striatal region divided by the density of counts in the occipital background region. The mean striatal SBR scores were calculated as the mean of the left and right caudate and putamen SBR scores. Since sampling in striatal subregions used the identical size ROI, there was equal contribution from left and right caudate and putamen to the mean SBR. […]

Structures are written as SMILES. “And” between values parts separate entries of the source, which are not always exact repeats. Identical values can stand only once.

T1 sequence (Q01959 whole entry): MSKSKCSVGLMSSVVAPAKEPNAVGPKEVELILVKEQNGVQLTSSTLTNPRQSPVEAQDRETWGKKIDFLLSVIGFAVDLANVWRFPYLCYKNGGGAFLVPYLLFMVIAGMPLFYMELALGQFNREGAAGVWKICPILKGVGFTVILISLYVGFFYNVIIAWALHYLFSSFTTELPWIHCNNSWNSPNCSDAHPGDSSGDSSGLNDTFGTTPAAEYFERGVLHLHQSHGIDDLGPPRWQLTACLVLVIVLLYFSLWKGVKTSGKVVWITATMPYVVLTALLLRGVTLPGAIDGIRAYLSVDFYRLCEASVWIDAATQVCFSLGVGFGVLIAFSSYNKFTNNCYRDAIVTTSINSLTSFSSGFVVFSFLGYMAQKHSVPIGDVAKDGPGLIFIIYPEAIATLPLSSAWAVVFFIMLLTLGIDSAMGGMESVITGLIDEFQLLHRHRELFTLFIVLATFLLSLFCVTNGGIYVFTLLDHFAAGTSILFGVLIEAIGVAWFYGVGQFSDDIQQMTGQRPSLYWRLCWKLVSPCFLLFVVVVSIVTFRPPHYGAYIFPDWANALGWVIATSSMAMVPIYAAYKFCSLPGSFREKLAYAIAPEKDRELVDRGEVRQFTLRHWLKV

Turning to `COC(=O)C1C(c2ccc(F)cc2)CC2CCC1N2C/C=C/I` (stereo not drawn) [123I Altropane, 2β-carbomethoxy-3β-(4′-flurophenyl)-N-(3-iodo-E-allyl) nortropane], the “Mean % test/retest difference” value is, setting by setting: (1 head) 4.94%; (2 heads) 5.11%; (3 heads) 5.14%. Moreover, the “time post injection of relative stability of binding ratios” value (a PD and a control subject, FIG. 3) was “about 15 minutes”. For the same compound, the “time post injection by which washout rates from striatum and occipital background are similar (stable striatal binding ratio)” value (all subjects) lay in the range of 20 to 30 min. Moreover, for the setting “controls and PD subjects, bolus injection”, the “time of peak striatal count densities post-injection” value turned out to be 10 min. Besides, the “Total striatal binding ratio, Ratio (3-6)” value was 1.29 (4×) and 1.23 and 1.30 (2×) and 1.26 (3×) and 1.25 (3×) and 1.22 (2×) and 1.37 (2×) and 1.40 and 1.48 and 1.20 (2×) and 1.16 and 1.32 and 1.35 and 1.21 (2×) and 1.12 and 1.28 and 1.17 and 1.24 (1 head); 1.29 and 1.27 (3×) and 1.35 and 1.37 and 1.31 and 1.32 (4×) and 1.30 and 1.36 and 1.43 and 1.47 and 1.60 and 1.25 and 1.21 and 1.19 and 1.38 (2×) and 1.40 and 1.24 (2×) and 1.12 and 1.26 and 1.33 (2×) and 1.20 and 1.45 (2 heads); 1.32 and 1.30 (2×) and 1.39 and 1.41 and 1.33 and 1.36 (2×) and 1.35 (2×) and 1.38 and 1.45 and 1.56 and 1.70 and 1.37 (2×) and 1.28 and 1.23 and 1.20 and 1.42 (2×) and 1.44 and 1.26 and 1.15 and 1.29 and 1.31 and 1.22 and 1.50 and 1.40 and 1.27 (3 heads). Besides, the “Peak Striatal:Occipital Ratio (peak SBR)” value reads like this: (individual PD subjects, 1 head reconstruction) 1.29 (2×) and 1.24 (2×) and 1.22 and 1.35 and 1.41 (2×) and 1.52 and 1.43 and 1.26 (2×) and 1.32 and 1.33 (2×); (individual PD subjects, 2 head reconstruction) 1.28 (2×) and 1.27 (2×) and 1.25 and 1.41 and 1.46 and 1.66 and 1.53 and 1.26 and 1.36 and 1.32 and 1.43 and 1.37 and 1.39; (individual PD subjects, 3 head reconstruction) 1.30 (2×) and 1.25 and 1.44 (2×) and 1.74 and 1.60 and 1.33 and 1.34 and 1.45 (2×) and 1.35 and 1.39 and 1.28 and 1.43; (individual healthy controls, 1 head reconstruction) 1.49 and 1.57 and 1.79 and 1.47 and 1.56 and 1.63 and 1.64 and 1.86 and 1.52 and 1.50 and 1.66 and 1.51; (individual healthy controls, 2 head reconstruction) 1.66 and 1.67 and 1.95 and 1.62 and 1.68 and 1.79 and 1.77 and 2.10 and 1.59 and 1.55 and 1.84 and 1.61; (individual healthy controls, 3 head reconstruction) 1.81 (2×) and 1.79 and 2.06 and 1.69 and 1.90 and 1.93 and 2.30 and 1.71 and 1.68 and 1.86 and 1.77. For the same compound, the “mean SBR (peak Striatal:Occipital Ratio)” value (mean of 12 healthy controls, 1 head) came out at 1.60; the “mean SBR (peak Striatal:Occipital Ratio)” value (mean of 12 healthy controls, 2 head) worked out at 1.74; the “mean SBR (peak Striatal:Occipital Ratio)” value (mean of 12 healthy controls, 3 head) was found to be 1.86; the “mean SBR (peak Striatal:Occipital Ratio)” value (mean of 15 PD subjects, 1 head) is 1.33; the “mean SBR (peak Striatal:Occipital Ratio)” value (mean of 15 PD subjects, 2 head) is recorded as 1.37; the “mean SBR (peak Striatal:Occipital Ratio)” value (mean of 15 PD subjects, 3 head) worked out at 1.41. In addition, the elimination from brain entry (most subjects, striatal and occipital regions) is recorded as “rapid elimination”. Where the note is “one and two head scenarios”, the “time of peak SBR post injection” value is not below 15 min.
